Here are results for seven compounds from ChEMBL document CHEMBL1201862, “PubChem BioAssay data set” (2004).

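96-well plates; 48 h exposure; 5 concentrations. Endpoints by linear interpolation between flanking doses. Not reached: highest tested concentration assigned. Here, GI50 denotes the concentration required for 50% inhibition of growth.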 Calls of active or inactive are those of the source. No stated cut-off is given here; in the data, active = GI50 up to about 1.1 µM and inactive = higher.

Some test systems named below: SN12C; IGROV-1; U-251; NCI-H460; OVCAR-4; OVCAR-3; HOP-92; SNB-75; RXF 393; SK-OV-3; Malme-3M; OVCAR-5; SK-MEL-2; HT-29; MOLT-4; MCF7; COLO 205; RPMI-8226; K562; SNB-19.
Assay in all cases: DTP human tumour cell line panel, 48 h

As usually defined, the GI50 is the concentration giving 50% growth inhibition. `S=P(N1CC1)(N1CC1)N1CC1` [THIOTEPA]: the GI50 with SN12C was 35.5 µM (inactive); in the assay with IGROV-1 it was 158 µM (inactive); in the assay on U-251 it was 58.7 µM (inactive); in the assay on NCI-H460, 5.33 µM (inactive); with OVCAR-4 it was 188 µM (inactive); in the assay on OVCAR-3, 169 µM (inactive). Further, the GI50 in the assay with HOP-92 was 112 µM (inactive); in the assay with SNB-75, 97.3 µM (inactive); in the assay with RXF 393 it was 101 µM (inactive); in the assay on SK-OV-3, 101 µM (inactive); in the assay with Malme-3M, 141 µM (inactive); with OVCAR-5, 147 µM (inactive). For the same compound, the GI50 is 220 µM (inactive) in the assay on SK-MEL-2; 159 µM (inactive) in the assay on HT-29; 7.69 µM (inactive) with MOLT-4; 30.7 µM (inactive) in the assay on MCF7; 141 µM (inactive) in the assay with COLO 205; 176 µM (inactive) with RPMI-8226. Also, the GI50 is 143 µM (inactive) in the assay on K562 and 115 µM (inactive) with SNB-19.

As for `O=[N+]([O-])C(=C(Cl)Cl)C(Cl)=C(Cl)Cl`, the GI50 is 0.497 µM (active) with SN12C; 0.422 µM (active) in the assay with IGROV-1; 2.81 µM (inactive) with U-251; 1.96 µM (inactive) in the assay on NCI-H460; 0.0847 µM (active) with OVCAR-4; 0.706 µM (active) in the assay with OVCAR-3. The GI50 is 0.279 µM (active) with HOP-92; 1.39 µM (inactive) in the assay with SNB-75; 0.0391 µM (active) in the assay on RXF 393; 3.25 µM (inactive) in the assay with SK-OV-3; 0.0454 µM (active) in the assay on Malme-3M; 2.02 µM (inactive) in the assay with OVCAR-5. For the same compound, the GI50 was 1.68 µM (inactive) in the assay with SK-MEL-2; 0.141 µM (active) in the assay with HT-29; 0.0166 µM (active) in the assay on MOLT-4; 0.114 µM (active) in the assay on MCF7; 0.0368 µM (active) with COLO 205; < 0.0176 µM (active) with RPMI-8226. The GI50 is 0.0118 µM (active) with K562 and 4.6 µM (inactive) with SNB-19.

For `O=C(/C=C/c1ccco1)c1cccc(C(=O)/C=C/c2ccco2)n1`, the GI50 is 12.6 µM (inactive) with SN12C; 6.82 µM (inactive) in the assay with IGROV-1; 5.22 µM (inactive) with U-251; 42.4 µM (inactive) in the assay on NCI-H460; > 73.5 µM (inactive) in the assay on OVCAR-4; 19.4 µM (inactive) in the assay with OVCAR-3. The GI50 in the assay with HOP-92 was 32.9 µM (inactive); in the assay on SNB-75, 45.5 µM (inactive); in the assay with RXF 393 it was 25.5 µM (inactive); in the assay with SK-OV-3, 47.8 µM (inactive); in the assay on Malme-3M, 25.7 µM (inactive); with OVCAR-5, 26.1 µM (inactive). For the same compound, the GI50 in the assay on SK-MEL-2 was 25.5 µM (inactive); with HT-29 it was 5.07 µM (inactive); in the assay on MOLT-4 it was 2.19 µM (inactive); with MCF7, 0.662 µM (active); with COLO 205, 23.6 µM (inactive); with RPMI-8226, 1.87 µM (inactive). In addition, the GI50 in the assay on K562 is 2.91 µM (inactive); in the assay with SNB-19, 8.41 µM (inactive).

Consider `CCc1nc(N)nc(N)c1-c1ccc(Cl)cc1` [PYRIMETHAMINE], for which the GI50 in the assay on SN12C was 3.33 µM (inactive); in the assay with IGROV-1, 9.86 µM (inactive); with U-251, 9.75 µM (inactive); in the assay with NCI-H460, 2.79 µM (inactive); in the assay on OVCAR-4, 41.6 µM (inactive); in the assay on OVCAR-3, 32 µM (inactive). For the same compound, the GI50 in the assay on HOP-92 is 21.3 µM (inactive); in the assay on SNB-75, 44.9 µM (inactive); in the assay with RXF 393, > 76.4 µM (inactive); in the assay on SK-OV-3 it was 74.3 µM (inactive); in the assay with Malme-3M it was 18.2 µM (inactive); in the assay on OVCAR-5, > 60 µM (inactive). The GI50 with SK-MEL-2 was 38.4 µM (inactive); with HT-29 it was 4.25 µM (inactive); with MOLT-4, 4.84 µM (inactive); in the assay with MCF7, 11.1 µM (inactive); with COLO 205, 18.9 µM (inactive); in the assay with RPMI-8226 it was 34.6 µM (inactive). The 50% growth inhibitory concentration (GI50) is 0.542 µM (active) in the assay on K562 and 32.8 µM (inactive) with SNB-19.

Turning to `CC(C)CCC[C@@H](C)[C@H]1CC[C@H]2[C@@H]3CC[C@H]4C[C@@H](CCC=C(c5cc(Cl)c(O)c(C(=O)O)c5)c5cc(Cl)c(O)c(C(=O)O)c5)CC[C@]4(C)[C@H]3CC[C@]12C`, the GI50 with SN12C, in the assay with IGROV-1, in the assay with U-251, with NCI-H460, with OVCAR-4 and in the assay with OVCAR-3 was > 100 µM (inactive) each time. Moreover, the GI50 in the assay with HOP-92, with SNB-75, with RXF 393, in the assay with SK-OV-3, in the assay on Malme-3M and with OVCAR-5 was > 100 µM (inactive) in each case. The GI50 with SK-MEL-2, with HT-29, with MOLT-4, in the assay with MCF7, in the assay on COLO 205 and in the assay with RPMI-8226 was > 100 µM (inactive) each time. For the same compound, the GI50 in the assay on K562 and in the assay with SNB-19 was > 100 µM (inactive) each time.

Take `FC(F)(F)c1ccc(/N=C/C=C(/Nc2ccc(C(F)(F)F)cc2)c2ccc(Cl)cc2)cc1`: the GI50 with SN12C is 10.4 µM (inactive); with IGROV-1 it was 2.62 µM (inactive); in the assay on U-251, 11.3 µM (inactive); in the assay on NCI-H460, 4.38 µM (inactive); in the assay with OVCAR-4, 14 µM (inactive); in the assay with OVCAR-3, 6.78 µM (inactive). The GI50 in the assay on HOP-92 is 16.5 µM (inactive); in the assay on SNB-75, 17.6 µM (inactive); in the assay on RXF 393, 10.1 µM (inactive); with SK-OV-3 it was 16.4 µM (inactive); with Malme-3M it was 19.4 µM (inactive); in the assay on OVCAR-5 it was 17.9 µM (inactive). Moreover, the GI50 in the assay on SK-MEL-2 was 8.34 µM (inactive); in the assay with HT-29 it was 5.04 µM (inactive); in the assay with MOLT-4, 4.06 µM (inactive); in the assay on MCF7, 17.5 µM (inactive); in the assay with COLO 205 it was 10.5 µM (inactive); in the assay on RPMI-8226 it was 4.72 µM (inactive). Further, the GI50 is 18.4 µM (inactive) with K562 and 8.61 µM (inactive) in the assay with SNB-19.

On to `N#Cc1nc(Sc2cnsn2)c(Sc2cnsn2)nc1C#N`, for which the GI50 with SN12C is 21.4 µM (inactive); in the assay with IGROV-1, 18.5 µM (inactive); in the assay with U-251, 29.4 µM (inactive); with NCI-H460 it was 24.6 µM (inactive); in the assay on OVCAR-4 it was 21.7 µM (inactive); with OVCAR-3, 6.79 µM (inactive). In addition, the GI50 in the assay on HOP-92 was 20 µM (inactive); in the assay on SNB-75 it was 22.9 µM (inactive); in the assay with RXF 393, 5.94 µM (inactive); in the assay with SK-OV-3 it was 17.9 µM (inactive); with Malme-3M, 4.81 µM (inactive); with OVCAR-5, 18.9 µM (inactive). The GI50 in the assay on SK-MEL-2 is 21.2 µM (inactive); with HT-29, 20.6 µM (inactive); in the assay with MOLT-4, 2.65 µM (inactive); in the assay on MCF7 it was 21.9 µM (inactive); with COLO 205, 3.85 µM (inactive); in the assay on RPMI-8226, 3.5 µM (inactive). Besides, the GI50 with K562 is 2.9 µM (inactive); in the assay with SNB-19 it was 30 µM (inactive).
